From US5998406A, “Oxazolidinone derivatives and pharmaceutical compositions” (Pharmacia & Upjohn Company, priority 1998, dated 1999)
≈ marks a conversion by molar mass, not a printed value.

Experiments:
Assay type in all cases: cell-based
[1] = test system: S. epidermidis, culture 12084; assay: MIC, standard agar dilution, S. epidermidis culture 12084; details: Staphylococcus epidermidis, CULTURE12084, Mueller Hinton agar, overnight at 35 C, read-out: SEPI 12084 MIC
Experimental: (§1) The in vitro MICs of test compounds are determined by a standard agar dilution method. A stock drug solution of each analog is prepared in the preferred solvent, usually DMSO:H2 O(1:3). Serial 2-fold dilutions of each sample are made using 1.0 ml aliquots of sterile distilled water. To each 1.0 ml aliquot of drug is added 9 ml of molten Mueller Hinton agar medium. The drug-supplemented agar is mixed, poured into 15×100 mm petri dishes, and allowed to solidify and dry prior to inoculation.
(§2) Vials of each of the test organisms are maintained frozen in the vapor phase of a liquid nitrogen freezer. Test cultures are grown overnight at 35 C. on the medium appropriate for the organism. Colonies are harvested with a sterile swab, and cell suspensions are prepared in Trypticase Soy broth (TSB) to equal the turbidity of a 0.5 McFarland standard. A 1:20 dilution of each suspension is made in TSB. The plates containing the drug supplemented agar are inoculated with a 0.001 ml drop of the cell suspension using a Steers replicator, yielding approximately 10^4 to 10^5 cells per spot. The plates are incubated overnight at 35 C.
(§3) Following incubation the Minimum Inhibitory Concentration (MIC μg/ml), the lowest concentration of drug that inhibits visible growth of the organism, is read and recorded.
^b) S. epidermidis, culture 12084

[2] = test system: H. influenzae, culture 30063; assay: MIC, standard agar dilution, H. influenzae culture 30063; details: Haemophilus influenzae, CULTURE30063, Mueller Hinton agar, overnight at 35 C, read-out: HINF 30063 MIC
Experimental: as §1, §2, §3
^e) H. influenzae, culture 30063

[3] = test system: E. faecalis, culture 9217; assay: MIC, standard agar dilution, E. faecalis culture 9217; details: Enterococcus faecalis, CULTURE9217, Mueller Hinton agar, overnight at 35 C, read-out: EFAE 9217 MIC
Experimental: as §1, §2, §3
^c) E. faecalis, culture 9217

S. aureus, culture 9213 = assay: MIC, standard agar dilution, S. aureus culture 9213; details: Staphylococcus aureus, CULTURE9213, Mueller Hinton agar, overnight at 35 C, read-out: SAUR 9213 MIC
Experimental: as §1, §2, §3
^a) S. aureus, culture 9213

[4] = test system: M. catarrhalis, culture 30610; assay: MIC, standard agar dilution, M. catarrhalis culture 30610; details: Moraxella catarrhalis, CULTURE30610, Mueller Hinton agar, overnight at 35 C, read-out: MCAT 30610 MIC
Experimental: as §1, §2, §3
^f) M. catarrhalis, culture 30610

[5] = test system: S. pueumoniae, culture 9912; assay: MIC, standard agar dilution, S. pueumoniae culture 9912; details: Mueller Hinton agar, overnight at 35 C, read-out: SPNE 9912 MIC
Experimental: as §1, §2, §3
^d) S. pueumoniae, culture 9912

MIC [1] [µg/mL]	MIC [2] [µg/mL]	MIC [3] [µg/mL]	MIC (S. aureus, culture 9213) [µg/mL]	MIC [4] [µg/mL]	MIC [5] [µg/mL]	Compound
1 (≈ 2.74 µM)	8 (≈ 22 µM)	4 (≈ 11 µM)	4 (≈ 11 µM)	8 (≈ 22 µM)	0.5 (≈ 1.37 µM)	CC(=O)NC[C@H]1CN(c2ccc(N3CCNC(=O)CC3)c(F)c2)C(=O)O1 [Example 1, (S)-N-[[3-[3-fluoro-4-(1,2,3,4,6,7-hexahydro-5-oxo-1,4-diazepin-1-yl)phenyl]-2-oxo-5-oxazolidinyl]methyl]acetamide]
1 (≈ 2.64 µM)	32 (≈ 84.6 µM)	4 (≈ 10.6 µM)	4 (≈ 10.6 µM)	8 (≈ 21.1 µM)	1 (≈ 2.64 µM)	CC(=O)NC[C@H]1CN(c2ccc(N3CCC(=O)N(C)CC3)c(F)c2)C(=O)O1 [Example 3, (S)-N-[[3-[3-fluoro-4-(1,2,3,4,6,7-hexahydro-4-methyl-5-oxo-1,4-diazepin-1-yl)phenyl]-2-oxo-5-oxazolidinyl]methyl]-acetamide]
< 0.5	8 (≈ 20.3 µM)	1 (≈ 2.54 µM)	1 (≈ 2.54 µM)	2 (≈ 5.07 µM)	< 0.5	CC(=S)NC[C@H]1CN(c2ccc(N3CCC(=O)N(C)CC3)c(F)c2)C(=O)O1 [Example 4, (S)-N-[[3-[3-fluoro-4-(1,2,3,4,6,7-hexahydro-4-methyl-5-oxo-1,4-diazepin-1-yl)phenyl]-2-oxo-5-oxazolidinyl]methyl]-thioacetamide]
